# System: IL-1β production in PMA-differentiated THP-1 cells
# Experiment: IL-1β production in PMA-differentiated THP-1 cells stimulated with gramicidin (hTHP-1 assay, 2% fetal bovine serum; Procedures 1-3)
# Assay type: cell-based, human
# Details: hTHP-1 assay containing 2% fetal bovine serum; class symbols; read-out: hTHP-1 IC50 (Average IC50 of compounds in hTHP-1 assay)
# In short: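 Readout is HTRF of IL-1β in cell-free supernatant after 2 h gramicidin (5 μM) challenge. Cells: THP-1 differentiated with PMA 20 ng/ml for 16-18 h, plated 50,000/well in 2% FBS RPMI, exposed to compound 1 h beforehand at final 100–0.0017 μM, DMSO 0.37%.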
row,Compound,IC50 [µM]
1,"CC(c1ccc(S(N)(=O)=NC(=O)Nc2c3c(cc4c2CCC4)CCC3)cc1)N(C)C (single isomer, unassigned) [Example 371, (S) or (R)-4-(1-(dimethylamino)ethyl)-N′-((1,2,3,5,6,7-hexahydro-s-indacen-4-yl)carbamoyl)benzenesulfonimidamide]",5 to 30
2,"CC(c1ccc(S(N)(=O)=NC(=O)Nc2c3c(cc4c2CCC4)CCC3)cc1)N(C)C (single isomer, unassigned) [Example 372, (R) or (S)-4-(1-(dimethylamino)ethyl)-N′-((1,2,3,5,6,7-hexahydro-s-indacen-4-yl)carbamoyl)benzenesulfonimidamide]",0.04 to 0.2
3,"CC(c1ccc(S(N)(=O)=NC(=O)Nc2c3c(cc4c2CCC4)CCC3)cc1)N(C)C (single isomer, unassigned) [Example 376, (S,S) or (S,R) or (R,R) or (R,S)-4-(1-(dimethylamino)ethyl)-N′-((1,2,3,5,6,7-hexahydro-s-indacen-4-yl)carbamoyl)benzenesulfonimidamide]",5 to 30
4,"CC(c1ccc(S(N)(=O)=NC(=O)Nc2c3c(cc4c2CCC4)CCC3)cc1)N(C)C (single isomer, unassigned) [Example 378, (R,S) or (R,R) or (S,R) or (S,S)-4-(1-(dimethylamino)ethyl)-N′-((1,2,3,5,6,7-hexahydro-s-indacen-4-yl)carbamoyl)benzenesulfonimidamide]",0.2 to 1
5,"CN(C)Cc1cc(F)c(S(N)(=O)=NC(=O)Nc2c3c(cc4c2CCC4)CCC3)s1 (single isomer, unassigned) [Example 382, (S) or (R)-5-((dimethylamino)methyl)-3-fluoro-N′-((1,2,3,5,6,7-hexahydro-s-indacen-4-yl)carbamoyl)thiophene-2-sulfonimidamide]",1 to 5
6,"CC(C)(O)c1cc(F)c(S(N)(=O)=NC(=O)Nc2c3c(cc4c2CCC4)CCC3)s1 (single isomer, unassigned) [Example 385, (R) or (S)-3-fluoro-N′-((1,2,3,5,6,7-hexahydro-s-indacen-4-yl)carbamoyl)-5-(2-hydroxypropan-2-yl)thiophene-2-sulfonimidamide]",0.008 to 0.04
7,"CC(C)(O)c1cc(F)c(S(N)(=O)=NC(=O)Nc2c3c(cc4c2CCC4)CCC3)s1 (single isomer, unassigned) [Example 386, (S) or (R)-3-fluoro-N′-((1,2,3,5,6,7-hexahydro-s-indacen-4-yl)carbamoyl)-5-(2-hydroxypropan-2-yl)thiophene-2-sulfonimidamide]",0.2 to 1
8,"COC(C)(C)c1ncc(S(N)(=O)=NC(=O)Nc2c3c(cc4c2CCC4)CCC3)s1 (single isomer, unassigned) [Example 388, (R) or (S)-N′-((1,2,3,5,6,7-hexahydro-s-indacen-4-yl)carbamoyl)-2-(2-methoxypropan-2-yl)thiazole-5-sulfonimidamide]",0.04 to 0.2
9,"COC(C)(C)c1ccc(S(N)(=O)=NC(=O)Nc2c3c(cc4c2CCC4)CCC3)cc1 (single isomer, unassigned) [Example 399, (R) or (S)-N′-((1,2,3,5,6,7-hexahydro-s-indacen-4-yl)carbamoyl)-4-(2-methoxypropan-2-yl)benzenesulfonimidamide]",0.2 to 1
10,"CN1CCCC1c1ccc(S(=N)(=O)NC(=O)Nc2c3c(cc4c2CCC4)CCC3)cc1 (single isomer, unassigned) [Example 408, (S,R) or (S,S) or (R,S) or (R,R)-N-((1,2,3,5,6,7-hexahydro-s-indacen-4-yl)carbamoyl)-4-(1-methylpyrrolidin-2-yl)benzenesulfonimidamide]",1 to 5
11,"CN1CCCC1c1ccc(S(=N)(=O)NC(=O)Nc2c3c(cc4c2CCC4)CCC3)cc1 (single isomer, unassigned) [Example 409, (R,S) or (S,R) or (S,R) or (R,R)-N-((1,2,3,5,6,7-hexahydro-s-indacen-4-yl)carbamoyl)-4-(1-methylpyrrolidin-2-yl)benzenesulfonimidamide]",0.2 to 1
12,"CN(C)Cc1ccc(S(N)(=O)=NC(=O)Nc2c3c(cc4c2CCC4)CCC3)nc1 (single isomer, unassigned) [Example 414, (S) or (R)-5-((dimethylamino)methyl)-N′-((1,2,3,5,6,7-hexahydro-s-indacen-4-yl)carbamoyl)pyridine-2-sulfonimidamide]",5 to 30
13,"CC(C)(O)c1ncc(S(N)(=O)=NC(=O)Nc2cc3c(c4c2CCC4)CCC3)s1 (single isomer, unassigned) [Example 420, (S) or (R)-N′-((1,2,3,6,7,8-hexahydro-as-indacen-4-yl)carbamoyl)-2-(2-hydroxypropan-2-yl)thiazole-5-sulfonimidamide]",1 to 5

# Continued, values first:
row,IC50 [µM],Compound
1,5 to 30,"CNS(=O)(=NC(=O)Nc1c2c(cc3c1CCC3)CCC2)c1cnc(C(C)(C)O)s1 (single isomer, unassigned) [Example 373, (R) or (S)-N′-((1,2,3,5,6,7-hexahydro-s-indacen-4-yl)carbamoyl)-2-(2-hydroxypropan-2-yl)-N-methylthiazole-5-sulfonimidamide]"
2,0.008 to 0.04,"CNS(=O)(=NC(=O)Nc1c2c(cc3c1CCC3)CCC2)c1cnc(C(C)(C)O)s1 (single isomer, unassigned) [Example 374, (S) or (R)-N′-((1,2,3,5,6,7-hexahydro-s-indacen-4-yl)carbamoyl)-2-(2-hydroxypropan-2-yl)-N-methylthiazole-5-sulfonimidamide]"
3,5 to 30,"CC(c1ccc(S(N)(=O)=NC(=O)Nc2c3c(cc4c2CCC4)CCC3)cc1)N(C)C (single isomer, unassigned) [Example 375, (S,R) or (S,S) or (R,S) or (R,R)-4-(1-(dimethylamino)ethyl)-N′-((1,2,3,5,6,7-hexahydro-s-indacen-4-yl)carbamoyl)benzenesulfonimidamide]"
4,0.04 to 0.2,"CC(c1ccc(S(N)(=O)=NC(=O)Nc2c3c(cc4c2CCC4)CCC3)cc1)N(C)C (single isomer, unassigned) [Example 377, (R,R) or (R,S) or (S,S) or (S,R)-4-(1-(dimethylamino)ethyl)-N′-((1,2,3,5,6,7-hexahydro-s-indacen-4-yl)carbamoyl)benzenesulfonimidamide]"
5,0.008 to 0.04,"CN(C)Cc1cc(F)c(S(N)(=O)=NC(=O)Nc2c3c(cc4c2CCC4)CCC3)s1 (single isomer, unassigned) [Example 381, (R) or (S)-5-((dimethylamino)methyl)-3-fluoro-N′-((1,2,3,5,6,7-hexahydro-s-indacen-4-yl)carbamoyl)thiophene-2-sulfonimidamide]"
6,1 to 5,"COC(C)(C)c1ncc(S(N)(=O)=NC(=O)Nc2c3c(cc4c2CCC4)CCC3)s1 (single isomer, unassigned) [Example 387, (S) or (R)-N′-((1,2,3,5,6,7-hexahydro-s-indacen-4-yl)carbamoyl)-2-(2-methoxypropan-2-yl)thiazole-5-sulfonimidamide]"
7,5 to 30,"COC(C)(C)c1ccc(S(N)(=O)=NC(=O)Nc2c3c(cc4c2CCC4)CCC3)cc1 (single isomer, unassigned) [Example 400, (S) or (R)-N′-((1,2,3,5,6,7-hexahydro-s-indacen-4-yl)carbamoyl)-4-(2-methoxypropan-2-yl)benzenesulfonimidamide]"
8,0.2 to 1,"CNCc1ccc(S(N)(=O)=NC(=O)Nc2c3c(cc4c2CCC4)CCC3)c(F)c1 (single isomer, unassigned) [Example 403, (R) or (S)-2-fluoro-N′-((1,2,3,5,6,7-hexahydro-s-indacen-4-yl)carbamoyl)-4-((methylamino)methyl)benzenesulfonimidamide]"
9,5 to 30,"CNCc1ccc(S(N)(=O)=NC(=O)Nc2c3c(cc4c2CCC4)CCC3)c(F)c1 (single isomer, unassigned) [Example 404, (S) or (R)-2-fluoro-N′-((1,2,3,5,6,7-hexahydro-s-indacen-4-yl)carbamoyl)-4-((methylamino)methyl)benzenesulfonimidamide]"
10,5 to 30,"CN1CCCC1c1ccc(S(=N)(=O)NC(=O)Nc2c3c(cc4c2CCC4)CCC3)cc1 (single isomer, unassigned) [Example 407, (R,R) or (R,S) or (S,S) or (S,R)-N-((1,2,3,5,6,7-hexahydro-s-indacen-4-yl)carbamoyl)-4-(1-methylpyrrolidin-2-yl)benzenesulfonimidamide]"
11,0.04 to 0.2,"CN1CCCC1c1ccc(S(=N)(=O)NC(=O)Nc2c3c(cc4c2CCC4)CCC3)cc1 (single isomer, unassigned) [Example 410, (R,S) or (S,R) or (R,S or (S,S)-N-((1,2,3,5,6,7-hexahydro-s-indacen-4-yl)carbamoyl)-4-(1-methylpyrrolidin-2-yl)benzenesulfonimidamide]"
12,0.2 to 1,"CN(C)Cc1ccc(S(N)(=O)=NC(=O)Nc2c3c(cc4c2CCC4)CCC3)nc1 (single isomer, unassigned) [Example 413, (R) or (S)-5-((dimethylamino)methyl)-N′-((1,2,3,5,6,7-hexahydro-s-indacen-4-yl)carbamoyl)pyridine-2-sulfonimidamide]"
13,1 to 5,"CC(=O)c1ncc(S(N)(=O)=NC(=O)Nc2c3c(cc4c2CCC4)CCC3)s1 (single isomer, unassigned) [Example 417, (R) or (S)-2-acetyl-N′-((1,2,3,5,6,7-hexahydro-s-indacen-4-yl)carbamoyl)thiazole-5-sulfonimidamide]"
14,0.04 to 0.2,"CC(=O)c1ncc(S(N)(=O)=NC(=O)Nc2c3c(cc4c2CCC4)CCC3)s1 (single isomer, unassigned) [Example 418, (S) or (R)-2-acetyl-N′-((1,2,3,5,6,7-hexahydro-s-indacen-4-yl)carbamoyl)thiazole-5-sulfonimidamide]"
15,0.04 to 0.2,"CC(C)(O)c1ncc(S(N)(=O)=NC(=O)Nc2cc3c(c4c2CCC4)CCC3)s1 (single isomer, unassigned) [Example 419, (R) or (S)-N′-((1,2,3,6,7,8-hexahydro-as-indacen-4-yl)carbamoyl)-2-(2-hydroxypropan-2-yl)thiazole-5-sulfonimidamide]"

# — US11724992B2 (Novartis AG, priority 2017, dated 2023)
